Measured values from patent publication US10251867B2, “Dosing regimen for a selective S1P1 receptor agonist” (ACTELION PHARMACEUTICALS LTD, priority 2008, dated 2019).
Read-outs that look alike come from different tables or passages of the source.

What was measured:
[1] = system: healthy male and female subjects; experiment: Multiple-ascending dose (MAD) study AC-058-102 Part A, heart rate without up-titration; format: in vivo, human; settings: Day 1, Part A
Protocol: In Part A of the multiple-ascending dose (MAD) study (AC-058-102), Compound 1 was administered orally with doses of 5, 10, and 20 mg once-daily for 7 days to healthy male and female subjects (aged 22-58 years, 1:1 sex ratio) in a randomized, double-blind, placebo-controlled design. At each dose level, a group of 10 subjects were randomized to Compound 1 (8), or placebo (2). In Part A, all 30 randomized subjects completed the study and the 24 subjects who were treated with Compound 1 were included in the PK analysis.

[2] = system: subjects; experiment: MAD study AC-058-102 Part B, up-titration scheme (10/20/40 mg), heart rate and ECG; format: in vivo, human; settings: for Mean HR reduction (2.5 h post-dose vs pre-dose): with up-titration, Part B 40-mg dose group
Protocol: In Part B of the MAD study, an up-titration scheme was implemented in order to reduce first-dose effects of Compound 1 on sinus node automaticity and atrioventricular- (AV-) conduction. Treatment with Compound 1 started for 4 days with 10 mg once daily, followed by 4 days with 20 mg once daily, and 7 days with 40 mg once daily. Seventeen subjects (nine females and eight males, aged 18-43 years) were randomized. Thirteen subjects received active treatment and four subjects received matching placebo. A total of 15 out of the 17 subjects completed the study as scheduled. […] The 11 subjects treated with 40-mg Compound 1 who completed the study were included in the PK analysis of Compound 1.

[3] = system: healthy male subjects; experiment: Single-ascending dose (SAD) study AC-058-101, heart rate; format: in vivo, human; settings: without up-titration; 50 mg SAD, Day 1
Protocol: In the single-ascending dose (SAD) study (AC-058-101), Compound 1 was administered orally to 6 groups of […] (aged 21-47 years). Doses of 1, 3, 8, 20, 50 and 75 mg were given to sequential groups of 8 subjects (6 on active drug and 2 on placebo) in a randomized, double-blind, placebo-controlled design. The dose of 20 mg was given once in the fasted and once in the fed condition, to assess any food effects on the pharmacokinetics of Compound 1. ECGs were recorded, clinical laboratory parameters, vital signs, pulmonary function, neurological assessments (in the 75-mg dose group), plasma levels of Compound 1, and peripheral lymphocyte counts (total and subsets) were determined. All 48 randomized subjects were evaluable and no subjects withdrew or discontinued from the study. All subjects treated with Compound 1 (n=36) were included in the pharmacokinetic (PK) and pharmacodynamic (PD) analysis.

[4] = system: humans; format: in vivo, human
Excerpt: All of these effects wane with repeated dosing. […] The acute effects on heart rate, atrioventricular conduction, or fatigue and dizziness, although not seriously adverse, are undesirable, and methods to minimize these effects would be valuable for maximizing the tolerability and safety of Compound 1, and other selective S1P1 receptor agonists, and minimizing associated monitoring requirements, in the early phase of dosing initiation, or, after a drug interruption, at re-initiation of drug therapy.
Desensitization has been sustained over this 24-hour dosing interval. […] Desensitization has not been sustained over this 7-day dosing interval of the 20-mg dose. […]

[5] = system: multiple sclerosis patients; settings: cited from earlier work
[6] = system: humans; settings: cited from earlier work

## CCC/N=C1\S/C(=C\c2ccc(OC[C@H](O)CO)c(Cl)c2)C(=O)N1c1ccccc1C [Compound 1, (R)-5-[3-chloro-4-(2,3-dihydroxy-propoxy)-benz[Z]ylidene]-2-([Z]-propylimino)-3-o-tolyl-thiazolidin-4-one]
[1]; 10 mg
  Mean HR reduction (2.5 h post-dose vs baseline): 14 bpm
[1]; 20 mg
  Mean HR reduction (2.5 h post-dose vs baseline): 22 bpm
[2]; Part B
  Second or third degree AV-blocks: No second or third degree AV-blocks were observed
[2]; Part B, multiple dosing
  Effects on other ECG variables: No relevant effects on other ECG variables were recorded
[2]; Part B, 13 subjects on active treatment
  Discontinuation of dosing due to adverse events: Dosing was discontinued in two subjects on active treatment due to adverse events
[2]; Part B, after first 10 mg dose on Day 1
  AV-block first degree: only one subject reported a transient AV-block first degree
[2]; Part B, day 2 (10 mg)
  Mean HR reduction at 2.5 h post-dose vs pre-dose: 2 bpm
[2]; Part B, day 3 (10 mg)
  Mean HR reduction at 2.5 h post-dose vs pre-dose: 1 bpm
[2]; Part B, day 4 (10 mg)
  Mean HR reduction at 2.5 h post-dose vs pre-dose: 1 bpm
[2]; Part B, day 6 (20 mg)
  Mean HR reduction at 2.5 h post-dose vs pre-dose: 4 bpm
[2]; Part B, day 7 (20 mg)
  Mean HR reduction at 2.5 h post-dose vs pre-dose: 3 bpm
[2]; Part B, day 8 (20 mg)
  Mean HR reduction at 2.5 h post-dose vs pre-dose: 3 bpm
[2]; 10 mg, Day 1
  Mean HR reduction (2.5 h post-dose vs pre-dose): 14 bpm
[2]; 20 mg, Day 5
  Mean HR reduction (2.5 h post-dose vs pre-dose): 9 bpm
[2]; 40 mg, Day 9
  Mean HR reduction (2.5 h post-dose vs pre-dose): 4 bpm
[3]
  Mean HR reduction (2.5 h post-dose vs baseline): 18 bpm
[4]; in vivo
  Acute effects on heart rate and rhythm and fatigue/dizziness, dose comparison: milder at 10 mg than at 20 mg
  Effect on heart rate: transiently reduces heart rate
  Fatigue or dizziness: Occasional fatigue or dizziness
  Heart rhythm: irregular heart rhythm (so-called Wenckebach rhythm)
  PR interval in the electrocardiogram (ECG): transient increases in the PR interval
  Time of maximal heart rate effect after administration: 1 to 3 h
[4]; in vivo, po
  Acute heart rate reduction: results in an acute heart rate reduction on Day 1
  Acute heart rate reduction compared to the pre-dose value: no longer observed
[4]; repeated daily oral dosing of 5 mg or more
  Number of peripheral blood lymphocytes: consistent, sustained, and dose-dependent reduction in the number of peripheral blood lymphocytes

## CCCCCCCCc1ccc(CCC(N)(CO)CO)cc1 [FTY720]
[5]
  Rate of clinical relapses: reduce the rate of clinical relapses
[6]
  Effect on heart rate: reduces heart rate in humans
